Our source for the inhibition values is ChEMBL document CHEMBL3132769, “Fragment growing to retain or alter the selectivity of anchored kinase hinge-binding fragments” (Medchemcomm, 2014).

As usually defined, the inhibition is the drop in the measured response relative to a control, in per cent.

Test [1] has as its target T1, Protein kinase C zeta type (Homo sapiens) (UniProt Q05513).
T1 sequence (whole entry): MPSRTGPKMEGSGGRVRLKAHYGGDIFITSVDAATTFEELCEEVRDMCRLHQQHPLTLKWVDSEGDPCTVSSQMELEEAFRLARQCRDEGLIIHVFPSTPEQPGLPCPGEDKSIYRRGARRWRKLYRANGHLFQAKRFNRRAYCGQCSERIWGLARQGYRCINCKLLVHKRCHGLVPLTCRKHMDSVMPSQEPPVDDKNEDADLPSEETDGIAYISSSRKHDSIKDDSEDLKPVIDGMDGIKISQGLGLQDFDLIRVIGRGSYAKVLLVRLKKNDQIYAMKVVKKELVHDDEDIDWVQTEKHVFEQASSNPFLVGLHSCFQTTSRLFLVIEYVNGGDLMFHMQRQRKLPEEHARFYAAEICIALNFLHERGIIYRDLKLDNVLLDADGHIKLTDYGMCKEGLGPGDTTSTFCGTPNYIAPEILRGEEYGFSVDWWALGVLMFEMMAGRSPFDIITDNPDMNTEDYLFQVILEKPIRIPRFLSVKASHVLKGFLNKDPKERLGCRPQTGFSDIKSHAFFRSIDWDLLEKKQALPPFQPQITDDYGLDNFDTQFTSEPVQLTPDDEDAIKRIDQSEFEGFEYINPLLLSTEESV
The experiment in a line: Inhibition of human full length PKC zeta expressed in baculovirus assessed as substrate phosphorylation using fluorescence-labelled peptides as substrate at 8 uM after 90 mins by microfluidic peptide phosphorylation assay.

The target in test [2] is Hepatocyte growth factor receptor (Homo sapiens) (UniProt P08581). The note with it: 0.1 uM.
Hepatocyte growth factor receptor (Homo sapiens), sequence (P08581 whole entry): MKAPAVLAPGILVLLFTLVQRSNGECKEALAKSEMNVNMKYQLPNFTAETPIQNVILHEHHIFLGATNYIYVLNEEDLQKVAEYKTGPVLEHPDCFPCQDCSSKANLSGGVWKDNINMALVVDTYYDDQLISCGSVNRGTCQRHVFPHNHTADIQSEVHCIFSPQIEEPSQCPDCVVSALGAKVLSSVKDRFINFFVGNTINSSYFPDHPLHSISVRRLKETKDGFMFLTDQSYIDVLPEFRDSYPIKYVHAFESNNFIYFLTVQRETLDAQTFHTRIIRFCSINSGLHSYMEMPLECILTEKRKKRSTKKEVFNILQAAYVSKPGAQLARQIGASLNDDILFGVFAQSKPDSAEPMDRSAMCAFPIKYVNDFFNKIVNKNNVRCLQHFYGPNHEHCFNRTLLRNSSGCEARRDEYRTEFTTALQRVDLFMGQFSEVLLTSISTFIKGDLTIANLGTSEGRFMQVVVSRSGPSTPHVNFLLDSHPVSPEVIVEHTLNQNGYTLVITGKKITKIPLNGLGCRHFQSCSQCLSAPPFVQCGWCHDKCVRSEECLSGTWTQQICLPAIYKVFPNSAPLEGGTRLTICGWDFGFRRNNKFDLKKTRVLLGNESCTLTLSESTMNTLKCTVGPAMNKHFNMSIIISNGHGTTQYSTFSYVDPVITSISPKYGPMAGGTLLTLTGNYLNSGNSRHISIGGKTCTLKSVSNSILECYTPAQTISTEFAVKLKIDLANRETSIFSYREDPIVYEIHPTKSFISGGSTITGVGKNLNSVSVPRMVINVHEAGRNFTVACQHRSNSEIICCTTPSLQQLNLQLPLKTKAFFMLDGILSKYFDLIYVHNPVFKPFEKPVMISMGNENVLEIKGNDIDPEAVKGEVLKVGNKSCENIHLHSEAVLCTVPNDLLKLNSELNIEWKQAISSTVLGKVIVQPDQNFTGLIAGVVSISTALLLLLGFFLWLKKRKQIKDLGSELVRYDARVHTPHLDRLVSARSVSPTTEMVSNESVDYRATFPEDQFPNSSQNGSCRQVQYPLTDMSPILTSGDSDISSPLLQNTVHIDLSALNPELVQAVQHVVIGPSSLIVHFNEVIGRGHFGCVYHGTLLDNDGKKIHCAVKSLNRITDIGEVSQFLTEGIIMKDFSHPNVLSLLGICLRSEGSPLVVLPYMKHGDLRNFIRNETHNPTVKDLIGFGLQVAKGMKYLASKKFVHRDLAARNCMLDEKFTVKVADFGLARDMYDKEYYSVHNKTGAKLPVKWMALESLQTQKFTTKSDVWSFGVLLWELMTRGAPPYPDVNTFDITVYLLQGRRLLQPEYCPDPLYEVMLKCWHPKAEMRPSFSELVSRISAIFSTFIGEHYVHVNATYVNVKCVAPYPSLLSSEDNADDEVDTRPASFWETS
Description: Inhibition of human MET cytoplasmic domain expressed in baculovirus assessed as substrate phosphorylation using fluorescence-labelled peptides as substrate at 0.1 uM after 90 mins by microfluidic peptide phosphorylation assay
Test [3] addresses Serine/threonine-protein kinase pim-1 (Homo sapiens) (UniProt P11309). The experiment in a line: Inhibition of human full length PIM1 expressed in baculovirus assessed as substrate phosphorylation using fluorescence-labelled peptides as substrate at 0.2 uM after 90 mins by microfluidic peptide phosphorylation assay.
Test [4] has as its target Dual specificity tyrosine-phosphorylation-regulated kinase 1A (Rattus norvegicus) (UniProt Q63470). The experiment in a line: Inhibition of rat full length DYRK1a expressed in Escherichia coli cell assessed as substrate phosphorylation using fluorescence-labelled peptides as substrate at 9 uM after 90 mins by microfluidic peptide phosphorylation assay.
The target of test [5] is T2, MAP kinase-activated protein kinase 5 (Homo sapiens) (UniProt Q8IW41).
T2 sequence (whole entry): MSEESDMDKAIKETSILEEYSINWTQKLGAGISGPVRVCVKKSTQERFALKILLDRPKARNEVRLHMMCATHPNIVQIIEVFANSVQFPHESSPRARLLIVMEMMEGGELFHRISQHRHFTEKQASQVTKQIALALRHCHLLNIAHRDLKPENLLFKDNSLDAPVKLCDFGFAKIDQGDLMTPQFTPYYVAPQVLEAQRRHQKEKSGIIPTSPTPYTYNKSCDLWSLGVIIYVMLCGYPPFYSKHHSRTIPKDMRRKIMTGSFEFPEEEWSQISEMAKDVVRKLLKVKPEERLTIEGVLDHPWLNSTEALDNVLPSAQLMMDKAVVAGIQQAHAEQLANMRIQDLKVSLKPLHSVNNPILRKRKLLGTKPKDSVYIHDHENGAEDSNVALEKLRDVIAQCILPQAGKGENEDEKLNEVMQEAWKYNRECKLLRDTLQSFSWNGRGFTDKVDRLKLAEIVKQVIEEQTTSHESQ
The experiment in a line: Inhibition of human full length PRAK expressed in baculovirus assessed as substrate phosphorylation using fluorescence-labelled peptides as substrate at 9 uM after 90 mins by microfluidic peptide phosphorylation assay.

The target of test [6] is Protein kinase C beta type (Homo sapiens) (UniProt P05771). Put plainly: Inhibition of human full length PKC beta2 expressed in baculovirus assessed as substrate phosphorylation using fluorescence-labelled peptides as substrate at 9 uM after 90 mins by microfluidic peptide phosphorylation assay.
Protein kinase C beta type (Homo sapiens), sequence (P05771 2-671 limits assumed): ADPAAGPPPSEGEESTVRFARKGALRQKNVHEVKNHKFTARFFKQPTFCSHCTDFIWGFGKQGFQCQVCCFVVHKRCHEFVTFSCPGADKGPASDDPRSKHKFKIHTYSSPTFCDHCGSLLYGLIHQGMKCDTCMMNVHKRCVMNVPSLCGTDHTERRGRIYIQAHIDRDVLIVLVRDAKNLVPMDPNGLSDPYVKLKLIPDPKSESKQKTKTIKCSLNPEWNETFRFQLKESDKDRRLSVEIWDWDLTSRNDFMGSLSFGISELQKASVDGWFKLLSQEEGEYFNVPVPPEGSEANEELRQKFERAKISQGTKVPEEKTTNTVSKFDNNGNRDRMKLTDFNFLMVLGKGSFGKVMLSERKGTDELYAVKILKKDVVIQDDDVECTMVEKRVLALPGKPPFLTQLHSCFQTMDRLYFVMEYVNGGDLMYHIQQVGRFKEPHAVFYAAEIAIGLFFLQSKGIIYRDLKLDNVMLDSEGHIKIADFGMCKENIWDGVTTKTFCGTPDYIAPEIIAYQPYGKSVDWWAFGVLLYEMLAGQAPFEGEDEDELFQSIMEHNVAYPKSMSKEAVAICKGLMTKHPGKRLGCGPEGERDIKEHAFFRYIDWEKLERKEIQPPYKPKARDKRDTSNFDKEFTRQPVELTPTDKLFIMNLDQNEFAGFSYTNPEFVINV
Test [7] concerns the target T3, Serine/threonine-protein kinase DCLK2 (Homo sapiens) (UniProt Q8N568).
T3 sequence (whole entry): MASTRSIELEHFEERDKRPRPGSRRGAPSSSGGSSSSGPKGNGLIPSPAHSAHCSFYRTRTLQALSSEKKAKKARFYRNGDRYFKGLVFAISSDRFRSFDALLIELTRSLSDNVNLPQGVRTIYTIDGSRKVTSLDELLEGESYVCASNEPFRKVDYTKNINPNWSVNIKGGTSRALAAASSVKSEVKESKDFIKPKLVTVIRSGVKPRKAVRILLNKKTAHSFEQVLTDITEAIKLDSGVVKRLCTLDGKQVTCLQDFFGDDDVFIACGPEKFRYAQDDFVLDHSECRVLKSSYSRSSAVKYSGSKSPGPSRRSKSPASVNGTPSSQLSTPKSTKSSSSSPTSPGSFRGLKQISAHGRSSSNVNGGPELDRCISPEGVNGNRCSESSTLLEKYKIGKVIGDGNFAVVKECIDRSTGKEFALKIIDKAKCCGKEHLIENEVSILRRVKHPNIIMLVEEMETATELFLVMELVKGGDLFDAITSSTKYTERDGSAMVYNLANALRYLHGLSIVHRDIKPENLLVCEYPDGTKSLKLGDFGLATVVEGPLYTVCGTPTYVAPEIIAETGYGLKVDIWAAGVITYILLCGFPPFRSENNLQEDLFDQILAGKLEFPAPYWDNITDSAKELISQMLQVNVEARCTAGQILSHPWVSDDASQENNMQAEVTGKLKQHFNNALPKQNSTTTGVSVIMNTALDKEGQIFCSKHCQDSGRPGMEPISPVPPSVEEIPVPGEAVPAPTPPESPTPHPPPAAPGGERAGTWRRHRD
The experiment in a line: Inhibition of human full length DCAMKL2 expressed in baculovirus assessed as substrate phosphorylation using fluorescence-labelled peptides as substrate at 1000 uM after 90 mins by microfluidic peptide phosphorylation assay.

Serine/threonine-protein kinase pim-1 (Homo sapiens), sequence (P11309 whole entry, looked up): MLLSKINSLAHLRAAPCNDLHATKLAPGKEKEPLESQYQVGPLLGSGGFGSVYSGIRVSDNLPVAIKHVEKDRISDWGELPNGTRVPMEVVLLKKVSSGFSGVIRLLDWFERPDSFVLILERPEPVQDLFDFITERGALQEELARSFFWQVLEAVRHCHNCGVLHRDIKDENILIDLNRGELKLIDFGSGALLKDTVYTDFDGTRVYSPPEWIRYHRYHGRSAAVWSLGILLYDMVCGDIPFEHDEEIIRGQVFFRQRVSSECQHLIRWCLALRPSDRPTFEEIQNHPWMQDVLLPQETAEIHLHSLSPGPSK

On to `NCC1CCN(c2ncnc3[nH]ccc23)CC1`, for which, in test [1], the inhibition stood at 67.5%.

For the compound `C[C@H](CN(C)C)Oc1nc(Nc2cc3cccc(Cl)c3cn2)cnc1C#N`, the inhibition in test [2] was found to be 0%.

Turning to `Clc1ccc(C2(c3ccc(-c4ncnc5[nH]cnc45)cc3)CCNCC2)cc1`, in test [3], the inhibition turned out to be 0%.

For `NCC1CN(c2ncnc3[nH]c4cnccc4c23)CCO1` (configuration not stated), the inhibition was found to be 7.5% in test [4], 0% in test [5] and 23.5% in test [6].

For `c1cnc2[nH]ccc2c1`, the inhibition in test [7] is 15%.
